Assays:
[1] = assay type: in vivo; conditions: mice
Description: Head twitch response (HTR) experiments. C57BL/6J Mice (9-10 weeks old) are housed following an IACUC approved protocol. The mice are habituated in the test cage for at least 30 min, injected intraperitoneally with compound (injection volume 5 ml/kg), returned to the empty test cage, and filmed for 20 minutes. Each video is scored for the number of head-twitches by a trained observer blinded to treatment condition.

[2] = system: 5HT2A sensor; assay type: cell-based
[3] = system: 5HT2A sensor; assay type: cell-based; remark: listed apart in the source
[4] = molecular target: T1, 5-HT2A (Homo sapiens, UniProt P28223); experiment: Serotonin 5-HT2A in vitro cellular IPOne agonism assay; assay type: cell-based; set-up: host or cells: CHO-K1; conditions: CHO-K1 cells, IPOne HTRF, agonist mode
T1 sequence (P28223 whole entry): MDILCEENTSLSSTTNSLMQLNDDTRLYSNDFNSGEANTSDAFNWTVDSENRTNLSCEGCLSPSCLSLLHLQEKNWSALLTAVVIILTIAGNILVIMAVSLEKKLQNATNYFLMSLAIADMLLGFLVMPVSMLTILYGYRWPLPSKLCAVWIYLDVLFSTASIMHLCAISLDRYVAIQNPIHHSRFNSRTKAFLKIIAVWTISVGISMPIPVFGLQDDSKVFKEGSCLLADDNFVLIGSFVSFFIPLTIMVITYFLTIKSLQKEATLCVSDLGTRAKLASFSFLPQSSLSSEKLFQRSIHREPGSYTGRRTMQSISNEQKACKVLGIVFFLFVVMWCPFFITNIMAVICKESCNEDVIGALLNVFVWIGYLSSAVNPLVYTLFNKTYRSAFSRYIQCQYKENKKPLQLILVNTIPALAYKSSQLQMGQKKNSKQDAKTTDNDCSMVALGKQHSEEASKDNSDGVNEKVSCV
Description: Serotonin 5-HT2A In Vitro Cellular IPOne Agonism Assay. The 5-HT2A IPOne HTRF assay was performed at Epics Therapeutics S.A. (Belgium, FAST-0505I) using conventional methods. Briefly, CHO-K1 cells expressing human recombinant 5-HT2A receptor grown to mid-log phase in culture media without antibiotics were detached with PBS-EDTA, centrifuged, and resuspended in medium without antibiotics buffer. 20,000 cells are distributed in a 96 well plate and incubated overnight at 37° C. with 5% Co2.
For agonist testing, the medium was removed and […] of assay buffer plus 20 μl of test compound or reference agonist were added in each well. The plate was incubated for 60 min. at 37° C. with 5% CO2.
(§1) After addition of the lysis buffer containing IP1-d2 and anti-IP1 cryptate detection reagents, plates were incubated 1-hour at room temperature, and fluorescence ratios were measured according to the manufacturer specification, with the HTRF kit.

[5] = molecular target: T1, 5-HT2A; experiment: Serotonin 5-HT2A in vitro cellular IPOne antagonism assay; assay type: cell-based; set-up: host or cells: CHO-K1; conditions: CHO-K1 cells, IPOne HTRF, reference agonist a-Me-5HT
Description: Serotonin 5-HT2A and 5-HT2C In Vitro Cellular IPOne Antagonism Assay. The 5-HT2A and 5-HT2C IPOne HTRF assay was performed at Epics Therapeutics S.A. (Belgium, FAST-0505I) in antagonism mode using conventional methods. Briefly, CHO-K1 cells expressing human recombinant 5-HT2A or 5-HT2C receptor grown to mid-log phase in culture media without antibiotics were detached with PBS-EDTA, centrifuged, and resuspended in medium without antibiotics buffer. 20,000 cells were distributed in a 96 well plate and incubated overnight at 37° C. with 5% C02.
For antagonist testing, a reference agonist a-Me-5HT was added and fluorescence signal monitored for several minutes, followed by addition of 20 μlof assay buffer plus 20 μl of test compound or reference antagonist ketanserin, in each well. The plate was incubated for 60 min. at 37° C. with 5% CO2.
as §1

[6] = molecular target: T1, 5-HT2A; experiment: Serotonin 5-HT2A in vitro radioligand binding competition assay ([3H]-DOI); set-up: purchased Epics Therapeutics S. A. (Belgium) FAST-0505B; conditions: [3H]-DOI competition, membrane extracts
Description: Serotonin 5-HT2A In Vitro Radioligand Binding Competition Assay. The 5-HT2A radioligand binding competition assay was performed at Epics Therapeutics S. A. (Belgium, FAST-0505B) using conventional methods. Briefly, competition binding was performed in duplicate in the wells of a 96 well plate (Master Block, Greiner, 786201) containing binding buffer (optimized for each receptor), membrane extracts (amount of protein/well optimized for each receptor), radiotracer [^3H]-DOI (final concentration optimized for each receptor) and test compound. Nonspecific binding was determined by co-incubation with 200-fold excess of cold competitor. The samples were incubated in a final volume of 0.1 ml at a temperature and for a duration optimized for each receptor and then filtered over filter plates. Filters were washed six times with 0.5 ml of ice-cold washing buffer (optimized for each receptor) and 50 μl of Microscint 20 (Packard) were added in each well. The plates were incubated 15 min on an orbital shaker and then counted with a TopCount™ for 1 min/well.

Compound | activation of the 5HT2A sensor assay in agonist mode [2] | competition with 5-HT in the 5HT2A sensor assay in antagonist mode [3] | further results
5-MeO-DMT [Compound 5-MeO-DMT] | activate the 5HT2A sensor assay in agonist mode | – | head-twitch response (HTR) [1]: produces a robust, dose-dependent head-twitch response
6-F-DET [Compound 6-F-DET] | do not activate the 5HT2A sensor assay in agonist mode | can compete with 5HT binding to 5HT2A | –
6-MeO-DMT [Compound 6-MeO-DMT] | do not activate the 5HT2A sensor assay in agonist mode | compete off 5-HT | head-twitch response (HTR) [1]: does not produce a HTR
COc1cc(CC(C)N)c(OC)cc1I.Cl (racemic) [DOI] | activate the 5HT2A sensor assay in agonist mode | – | –
CN1CC(n2ccc3cc(Cl)ccc32)C1 [Compound 36, 5-chloro-1-(1-methylazetidin-3-yl)-1H-indole] | – | – | EC50 [4]: > 10 µM; IC50 [5]: > 10 µM; IC50 [6]: > 10 µM
CN1CC(n2ccc3cc(C#N)ccc32)C1 [Compound 37, 1-(1-methylazetidin-3-yl)-1H-indole-5-carbonitrile] | – | – | EC50 [4]: > 10 µM; IC50 [5]: > 10 µM; IC50 [6]: > 10 µM
CN(C)CCc1c[nH]c2ccccc12 [DMT, N,N-dimethyltryptamine] | activate the 5HT2A sensor assay in agonist mode | – | –
O=C(c1ccc(F)cc1)C1CCN(CCn2c(=O)[nH]c3ccccc3c2=O)CC1 [Ketanserin] | do not activate the 5HT2A sensor assay in agonist mode | can compete with 5HT binding to 5HT2A | –
BOL148 | do not activate the 5HT2A sensor assay in agonist mode | can compete with 5HT binding to 5HT2A | –
L-MDMA | do not activate the 5HT2A sensor assay in agonist mode | – | –
R-MDMA | do not activate the 5HT2A sensor assay in agonist mode | – | –

Source: patent publication US20250101001A1 (priority 2021, published 2025)
